Experimental findings from ChEMBL document CHEMBL5674880 (PLoS One, 2018) are described below.

The target in the test is Histone-lysine N-methyltransferase SMYD3 (Homo sapiens, UniProt Q9H7B4). Put plainly: Inhibition of SMYD3 (unknown origin).

The structures appear in SMILES notation.

Sequence of Histone-lysine N-methyltransferase SMYD3 (Q9H7B4 whole entry): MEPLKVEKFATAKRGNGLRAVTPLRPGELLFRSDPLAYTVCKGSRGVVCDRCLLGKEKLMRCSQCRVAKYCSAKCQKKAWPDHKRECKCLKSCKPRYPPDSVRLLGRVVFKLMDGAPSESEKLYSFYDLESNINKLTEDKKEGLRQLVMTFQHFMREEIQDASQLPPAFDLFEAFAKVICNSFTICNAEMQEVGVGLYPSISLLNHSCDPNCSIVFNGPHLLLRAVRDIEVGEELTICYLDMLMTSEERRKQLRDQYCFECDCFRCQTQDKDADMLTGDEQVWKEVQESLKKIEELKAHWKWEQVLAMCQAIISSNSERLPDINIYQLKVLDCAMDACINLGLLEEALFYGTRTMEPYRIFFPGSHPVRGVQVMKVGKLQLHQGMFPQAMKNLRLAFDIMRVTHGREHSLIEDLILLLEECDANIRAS

The IC50 is the concentration needed to halve the response being measured. A lower IC50 goes with higher potency. On to `O=C1Cc2cc(C(=O)N[C@H]3C[C@H]4CC[C@@H](C3)N4S(=O)(=O)CC3CCN(CCCC(F)(F)F)CC3)c(Cl)cc2N1`, for which half-maximal inhibition (IC50) was put at 5 nM.
